From patent publication US10155259B2 (Merck Sharp & Dohme B.V., priority 2011, dated 2018)

Target: T1, human FSH receptor (Homo sapiens, UniProt P23945)
T1 construct: expressed in transfected cells; host or cells: CHO cells, stably transfected; cotransfected with CRE-luciferase reporter
T1 sequence (P23945 18-695): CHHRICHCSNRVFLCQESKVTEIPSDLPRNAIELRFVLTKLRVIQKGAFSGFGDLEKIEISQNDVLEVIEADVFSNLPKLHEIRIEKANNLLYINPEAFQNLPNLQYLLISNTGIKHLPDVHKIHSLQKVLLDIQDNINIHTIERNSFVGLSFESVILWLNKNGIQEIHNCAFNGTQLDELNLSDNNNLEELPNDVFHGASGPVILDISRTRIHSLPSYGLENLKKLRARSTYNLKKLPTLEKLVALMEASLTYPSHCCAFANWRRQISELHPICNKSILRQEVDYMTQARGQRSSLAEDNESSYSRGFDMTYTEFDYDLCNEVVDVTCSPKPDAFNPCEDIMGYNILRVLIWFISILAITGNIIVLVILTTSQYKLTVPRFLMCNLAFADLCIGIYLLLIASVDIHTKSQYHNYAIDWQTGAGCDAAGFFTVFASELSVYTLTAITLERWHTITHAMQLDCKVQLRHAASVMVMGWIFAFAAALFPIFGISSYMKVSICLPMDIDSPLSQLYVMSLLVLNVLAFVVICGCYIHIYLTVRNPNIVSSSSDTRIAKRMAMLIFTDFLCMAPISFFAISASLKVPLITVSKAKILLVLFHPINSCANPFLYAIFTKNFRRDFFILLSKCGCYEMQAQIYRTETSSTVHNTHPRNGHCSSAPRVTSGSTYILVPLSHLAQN
Test: Antagonistic activity of compounds at the human FSH receptor expressed in CHO cells (CRE-luciferase reporter)
Format: cell-based
Settings: CHO cells stably transfected with human FSH receptor and CRE/luciferase reporter; together with 49 μM recFSH; 4 hours incubation; 1% DMSO; read-out: IC50 (concentration of test compound causing half-maximal inhibition of the maximally attainable inhibition of the luciferase stimulation)
Description: Antagonistic Activity of Compounds at the Human FSH Receptor Expressed in CHO Cells
Antagonistic activity of the compounds at the human FSH receptor was determined in Chinese Hamster Ovary (CHO) cells stably transfected with the human FSH receptor and cotransfected with a cAMP responsive element (CRE)/promotor directing the expression of a firefly luciferase reporter gene. Binding of the compounds to the Gs protein-coupled FSH receptor will result in an increase of cAMP, which in turn will induce an increased transactivation of the luciferase reporter. The cells (7,500 cells/well of a 384 well plate) were incubated in Dulbecco' minimal essential F12 modified medium (Invitrogen), supplemented with 1 μg/ml bovine insulin, 5 μg/ml human apo-transferrin, 100 U/ml penicillin G and 100 μg/ml streptomycin with the test compounds (concentration between 0.316 nM and 10.0 μM) in duplicate together with […] (which, at this concentration in the absence of test compound, induces 80% of the maximal luciferase stimulation) in a humidified atmosphere (95%) at 5-7% CO2 and 37° C. The final concentration of DMSO was 1%. After 4 hours of incubation, plates were allowed to adjust to room temperature for 1 hour. Then, SteadyLite (PerkinElmer) solution was added to the wells and cells were allowed to lyse for at least 1 hour at room temperature. Subsequently, luciferase activity was measured in a luminescence counter. The signal is expressed as counts per second (cps). The IC50 (concentration of test compound causing half-maximal (50%) inhibition of the maximally attainable inhibition of the luciferase stimulation by the compound) and efficacy of the compounds were determined using the software program MathIQ (version 2.3, ID Business Solutions Limited).

IC50	SMILES
100 to 1000 nM	CC(C)Oc1cc2c(cc1OC(C)C)-c1cc(C(=O)N[C@@H](CO)Cc3c[nH]c4ccccc34)c(-c3ccccc3)n1CC2 [Example 30, (R)—N-(1-hydroxy-3-(1H-indol-3-yl)propan-2-yl)-8,9-diisopropoxy-3-phenyl-5,6-dihydropyrrolo[2,1-a]isoquinoline-2-carboxamide]
< 100 nM	COc1cc2c(cc1OCCO)-c1cc(C(=O)N[C@@H](CO)Cc3c[nH]c4ccccc34)c(-c3cccc(F)c3)n1CC2 [Example 38, (R)-3-(3-fluorophenyl)-N-(1-hydroxy-3-(1H-indol-3-yl)propan-2-yl)-9-(2-hydroxyethoxy)-8-methoxy-5,6-dihydropyrrolo[2,1-a]isoquinoline-2-carboxamide]
< 100 nM	COc1cc2c(c(OC)c1OC)-c1cc(C(=O)N[C@@H](CO)Cc3c[nH]c4ccccc34)c(-c3cccs3)n1CC2 [Example 64, (R)—N-(1-hydroxy-3-(1H-indol-3-yl)propan-2-yl)-8,9,10-trimethoxy-3-(thiophen-2-yl)-5,6-dihydropyrrolo[2,1-a]isoquinoline-2-carboxamide]
< 100 nM	COc1cc2c(cc1OC(C)C)-c1cc(C(=O)N[C@@H](CO)Cc3c[nH]c4ccccc34)c(C(=O)c3ccccc3)n1CC2 [Example 29, (R)-3-benzoyl-N-(1-hydroxy-3-(1H-indol-3-yl)propan-2-yl)-9-isopropoxy-8-methoxy-5,6-dihydropyrrolo[2,1-a]isoquinoline-2-carboxamide]
100 to 1000 nM	COc1cc2c(cc1-c1cnc(N(C)C)nc1)-c1cc(C(=O)N[C@@H](CO)Cc3c[nH]c4ccccc34)c(-c3cccc(F)c3)n1CC2 [Example 51, (R)-9-(2-(dimethylamino)pyrimidin-5-yl)-3-(3-fluorophenyl)-N-(1-hydroxy-3-(1H-indol-3-yl)propan-2-yl)-8-methoxy-5,6-dihydropyrrolo[2,1-a]isoquinoline-2-carboxamide]
< 100 nM	COc1cc2c(cc1OC(C)C)-c1cc(C(=O)N[C@@H](CO)Cc3c[nH]c4ccccc34)c(-c3ccccc3F)n1CC2 [Example 18, 3-(2-fluorophenyl)-N—((R)-1-hydroxy-3-(1H-indol-3-yl)propan-2-yl)-9-isopropoxy-8-methoxy-5,6-dihydropyrrolo[2,1-a]isoquinoline-2-carboxamide]
< 100 nM	COc1cc2c(cc1OC)-c1cc(C(=O)N[C@@H](CO)Cc3c[nH]c4ccccc34)c(-c3cccc(F)c3)n1CC2 [Example 10, (R)-3-(3-fluorophenyl)-N-(1-hydroxy-3-(1H-indol-3-yl)propan-2-yl)-8,9-dimethoxy-5,6-dihydropyrrolo[2,1-a]isoquinoline-2-carboxamide]
< 100 nM	COc1cc2c(cc1OC(C)C)-c1cc(C(=O)N[C@@H](CO)Cc3c[nH]c4ccccc34)c(CC(C)C)n1CC2 [Example 22, (R)—N-(1-hydroxy-3-(1H-indol-3-yl)propan-2-yl)-3-isobutyl-9-isopropoxy-8-methoxy-5,6-dihydropyrrolo[2,1-a]isoquinoline-2-carboxamide]
< 100 nM	COc1cc2c(cc1-c1cncnc1)-c1cc(C(=O)N[C@@H](CO)Cc3c[nH]c4ccccc34)c(-c3cccs3)n1CC2 [Example 49, (R)—N-(1-hydroxy-3-(1H-indol-3-yl)propan-2-yl)-8-methoxy-9-(pyrimidin-5-yl)-3-(thiophen-2-yl)-5,6-dihydropyrrolo[2,1-a]isoquinoline-2-carboxamide]
< 100 nM	COc1ccc(-c2c(C(=O)N[C@@H](CO)Cc3c[nH]c4ccccc34)cc3n2CCc2cc(OC)c(OC)cc2-3)cc1 [Example 8, (R)—N-(1-hydroxy-3-(1H-indol-3-yl)propan-2-yl)-8,9-dimethoxy-3-(4-methoxyphenyl)-5,6-dihydropyrrolo[2,1-a]isoquinoline-2-carboxamide]
< 100 nM	COc1cc2c(cc1OCc1ccccc1)-c1cc(C(=O)N[C@@H](CO)Cc3c[nH]c4ccccc34)c(-c3cccc(F)c3)n1CC2 [Example 34, (R)-9-(benzyloxy)-3-(3-fluorophenyl)-N-(1-hydroxy-3-(1H-indol-3-yl)propan-2-yl)-8-methoxy-5,6-dihydropyrrolo[2,1-a]isoquinoline-2-carboxamide]
< 100 nM	COc1cc2c(c(OC)c1OC)CCn1c-2cc(C(=O)N[C@@H](CO)Cc2c[nH]c3ccccc23)c1-c1ccccc1 [Example 60, (R)—N-(1-hydroxy-3-(1H-indol-3-yl)propan-2-yl)-7,8,9-trimethoxy-3-phenyl-5,6-dihydropyrrolo[2,1-a]isoquinoline-2-carboxamide]
< 100 nM	COc1cc2c(c(OC)c1OC)-c1cc(C(=O)N[C@@H](CO)Cc3c[nH]c4ccccc34)c(-c3ccccc3)n1CC2 [Example 63, (R)—N-(1-hydroxy-3-(1H-indol-3-yl)propan-2-yl)-8,9,10-trimethoxy-3-phenyl-5,6-dihydropyrrolo[2,1-a]isoquinoline-2-carboxamide]
< 100 nM	COc1cc2c(cc1OC(C)C)-c1cc(C(=O)N[C@@H](CO)Cc3c[nH]c4ccccc34)c(C(=O)c3cccs3)n1CC2 [Example 28, (R)—N-(1-hydroxy-3-(1H-indol-3-yl)propan-2-yl)-9-isopropoxy-8-methoxy-3-(thiophene-2-carbonyl)-5,6-dihydropyrrolo[2,1-a]isoquinoline-2-carboxamide]
< 100 nM	COc1cc2c(cc1OC)-c1cc(C(=O)N[C@@H](CO)Cc3c[nH]c4ccccc34)c(-c3ccccc3)n1CC2 [Example 5, (R)—N-(1-hydroxy-3-(1H-indol-3-yl)propan-2-yl)-8,9-dimethoxy-3-phenyl-5,6-dihydropyrrolo[2,1-a]isoquinoline-2-carboxamide]
< 100 nM	COc1ccccc1-c1c(C(=O)N[C@@H](CO)Cc2c[nH]c3ccccc23)nc2n1CCc1cc(OC)c(OC)nc1-2 [Example 70, N—((R)-1-hydroxy-3-(1H-indol-3-yl)propan-2-yl)-8,9-dimethoxy-3-(2-methoxyphenyl)-5,6-dihydroimidazo[1,2-h][1,7]naphthyridine-2-carboxamide]
< 100 nM	COc1ccc(-c2cc3c(cc2OC)CCn2c-3cc(C(=O)N[C@@H](CO)Cc3c[nH]c4ccccc34)c2-c2cccs2)cn1 [Example 58, (R)—N-(1-hydroxy-3-(1H-indol-3-yl)propan-2-yl)-8-methoxy-9-(6-methoxypyridin-3-yl)-3-(thiophen-2-yl)-5,6-dihydropyrrolo[2,1-a]isoquinoline-2-carboxamide]
< 100 nM	COc1cc2c(c(OC)c1OC)CCn1c-2cc(C(=O)N[C@@H](CO)Cc2c[nH]c3ccccc23)c1-c1cccc(F)c1 [Example 62, (R)-3-(3-fluorophenyl)-N-(1-hydroxy-3-(1H-indol-3-yl)propan-2-yl)-7,8,9-trimethoxy-5,6-dihydropyrrolo[2,1-a]isoquinoline-2-carboxamide]
< 100 nM	COc1cc(-c2cc3c(cc2OC)CCn2c-3cc(C(=O)N[C@@H](CO)Cc3c[nH]c4ccccc34)c2-c2cccs2)ccn1 [Example 57, (R)—N-(1-hydroxy-3-(1H-indol-3-yl)propan-2-yl)-8-methoxy-9-(2-methoxypyridin-4-yl)-3-(thiophen-2-yl)-5,6-dihydropyrrolo[2,1-a]isoquinoline-2-carboxamide]
< 100 nM	COc1cc2c(cc1-c1cnn(C)c1)-c1cc(C(=O)N[C@@H](CO)Cc3c[nH]c4ccccc34)c(-c3cccs3)n1CC2 [Example 55, (R)—N-(1-hydroxy-3-(1H-indol-3-yl)propan-2-yl)-8-methoxy-9-(1-methyl-1H-pyrazol-4-yl)-3-(thiophen-2-yl)-5,6-dihydropyrrolo[2,1-a]isoquinoline-2-carboxamide]

SMILES	IC50
COc1cc2c(cc1OC(C)C)-c1cc(C(=O)NC(CO)C3(c4c[nH]c5ccccc45)CC3)c(-c3cccc(F)c3)n1CC2 (stereo not shown) [Example 3]	100 to 1000 nM
COc1cc2c(cc1OC1CCCC1)-c1cc(C(=O)N[C@@H](CO)Cc3c[nH]c4ccccc34)c(-c3cccc(F)c3)n1CC2 [Example 35]	< 100 nM
